Here are results for 56 substances from US20240368668A1, “SUBSTRATES AND BIOMARKERS OF ADAMTS7” (The Broad Institute, Inc., priority 2021, published 2024).

Square brackets hold non-standard residues; d marks the D form. Ends that are not written are not given here. deamidated = deamidated asparagine; Met(O) = CS(=O)CC[C@H](N)C(=O)O

The test system of the first assay is mouse ADAMTS7. Kind of assay: TMT10 TAILS N-terminomics, SMC1 experiment (Ad-mADAMTS7 WT vs EQ vs Luc, technical replicates, trypsin digest). To be noted: TAILS HC Overlap; SMC1; log fold change mouse ADAMTS7 WT over catalytically inactive EQ. In kind it is cell-based. In short, it runs like this:
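Full-length mouse ADAMTS7 (WT or E373Q mutant, C-terminal 3xFLAG) or luciferase was transduced via adenovirus, 50 MOI, into HCA-SMC (SMC1, SMC2) or HUVEC. SMC1: pooled media, technical triplicates 400 ug; SMC2: process triplicates 300 ug; HUVEC: process triplicates 200 ug, bFGF2 10 ng/ml.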
In the case of “SERBP1_56 (QAAAQTNSNAAGKQLR; listed as Homo sapiens)”, the “SMC1 logFC.mWT.over.mEQ” value amounted to 4.06.

For “SRGN_59 (LLPGESNKIPR; listed as Homo sapiens)”, the “SMC1 logFC.mWT.over.mEQ” value came to 4.33.

Consider “THBS2_290 (LSENLKR; listed as Homo sapiens)”, for which the “SMC1 logFC.mWT.over.mEQ” value came to 4.05.

In the case of “VIM_314 (QESTEYR; listed as Homo sapiens)”, the “SMC1 logFC.mWT.over.mEQ” value is reported as 2.60.

As for “VIM_333 (LKGTNESLER; listed as Homo sapiens)”, the “SMC1 logFC.mWT.over.mEQ” value was determined as 4.39.

Staying with this assay, now noted: TAILS neo-N-terminal peptide abundance; log fold change, Ad-mADAMTS7 WT over EQ.
“CDC37_43 (FQKEKEELDR; listed as Homo sapiens)” had a logFC.mWT.over.mEQ of 1.88.

With “CDH11_467 (HQEAKVPVAIR; listed as Homo sapiens)”, the logFC.mWT.over.mEQ is given as 2.06.

The substance “CLEC11A_50 (HLQEALGLPAGR; listed as Homo sapiens)” registered a logFC.mWT.over.mEQ of 1.42.

For “COL1A2_80 (QYDGKGVGLGPGPMGLMGPR; listed as Homo sapiens)”, the logFC.mWT.over.mEQ was found to be 2.36.

“COL1A2_91 (GPMGLMGPR; listed as Homo sapiens)” yielded a logFC.mWT.over.mEQ of 1.16.

The substance “COL1A2_113 (FQGPAGEPGEPGQTGPAGAR; listed as Homo sapiens)” registered a logFC.mWT.over.mEQ of 2.27.

“COL1A2_270 (VGNAGPAGPAGPR; listed as Homo sapiens)” registered a logFC.mWT.over.mEQ of 2.82.

The substance “COL1A2_305 (LTGAKGAAGLPGVAGAPGLPGPR; listed as Homo sapiens)” came in with a logFC.mWT.over.mEQ of 1.63.

“COL1A2_389 (SAGPPGPPGLR; listed as Homo sapiens)” showed a logFC.mWT.over.mEQ of 0.72.

The substance “COL1A2_425 (ASGPAGVR; listed as Homo sapiens)” returned a logFC.mWT.over.mEQ of 1.34.

In turn, “COL1A2_630 (VGTAGPSGPSGLPGER; listed as Homo sapiens)” yielded a logFC.mWT.over.mEQ of 1.45.

For the substance “COL1A2_681 (VGAPGPAGATGDR; listed as Homo sapiens)”, the logFC.mWT.over.mEQ was 1.60.

Take “COL1A2_731 (AAGQPGAKGER; listed as Homo sapiens)”: the logFC.mWT.over.mEQ was 1.03.

For “COL1A2_866 (LLGAPGILGLPGSR; listed as Homo sapiens)”, the logFC.mWT.over.mEQ came to 3.72.

“COL1A2_960 (AGAPGPHGPVGPAGKHGNR; listed as Homo sapiens)” yielded a logFC.mWT.over.mEQ of 2.91.

“COL1A2_1028 (LQGLPGIAGHHGDQGAPGSVGPAGPR; listed as Homo sapiens)” came in with a logFC.mWT.over.mEQ of 1.79.

With “COL1A2_1037 (HHGDQGAPGSVGPAGPR; listed as Homo sapiens)”, the logFC.mWT.over.mEQ worked out at 3.09.

The substance “COL1A2_1127 (SLRPKDYEVDATLKSLNNQIETLLTPEGSR; listed as Homo sapiens)” had a logFC.mWT.over.mEQ of 2.68.

Take “COL4A2_71 (YNGPPGLQGFPGLQGR; listed as Homo sapiens)”: the logFC.mWT.over.mEQ came out at 2.14.

Regarding “COL4A2_172 (YALPKEER; listed as Homo sapiens)”, the logFC.mWT.over.mEQ amounted to 5.21.

As to “COL5A1_544 (SQAQAILQQAR; listed as Homo sapiens)”, the logFC.mWT.over.mEQ is on record as 1.08.

With “COL8A1_90 (MKEIQPAPR; listed as Homo sapiens)”, the logFC.mWT.over.mEQ was found to be 1.35.

The substance “COL18A1_1505 (LQPPVVQLHDSNPYPR; listed as Homo sapiens)” displayed a logFC.mWT.over.mEQ of 1.42.

The substance “ECM1_43 (YAAPPSPPLSR; listed as Homo sapiens)” registered a logFC.mWT.over.mEQ of 0.68.

On to “LTBP2_1602 (EAGVHFR; listed as Homo sapiens)”, for which the logFC.mWT.over.mEQ is given as 0.99.

As to “MAN2A1_51 (LQEKIDHLER; listed as Homo sapiens)”, the logFC.mWT.over.mEQ worked out at 1.86.

In turn, “MAP1B_1065 (LTTPTKQLGAQSPGR; listed as Homo sapiens)” gave a logFC.mWT.over.mEQ of 1.30.

The substance “MAP4_815 (AVASTGPSSR; listed as Homo sapiens)” displayed a logFC.mWT.over.mEQ of 1.19.

“MAP4_816 (VASTGPSSR; listed as Homo sapiens)” had a logFC.mWT.over.mEQ of 1.62.

As to “MGAT4B_28 (LSGQKGDVVDVYQR; listed as Homo sapiens)”, the logFC.mWT.over.mEQ is listed as 1.66.

In turn, “MMP1_24 (LETQEQDVDLVQKYLEKYYNLKN(deamidated)DGR; listed as Homo sapiens)” returned a logFC.mWT.over.mEQ of 2.31.

“NID2_291 (HSSVPLGR; listed as Homo sapiens)” yielded a logFC.mWT.over.mEQ of 4.04.

“NID2_374 (VGGPDLKGQVEPWDER; listed as Homo sapiens)” gave a logFC.mWT.over.mEQ of 4.94.

Turning to “NID2_467 (LEDNIGSNTEVFTYNAANKETCEHNHR; listed as Homo sapiens)”, the logFC.mWT.over.mEQ is 2.66.

Substance “NID2_951 (YAYPGAR; listed as Homo sapiens)” registered a logFC.mWT.over.mEQ of 3.92.

Consider “NUCB1_228 (LKEVWEELDGLDPNR; listed as Homo sapiens)”, for which the logFC.mWT.over.mEQ amounted to 1.63.

As for “NUCB1_317 (FLASTQR; listed as Homo sapiens)”, the logFC.mWT.over.mEQ was found to be 4.87.

Substance “NUCB1_389 (LQQAVLHMEQR; listed as Homo sapiens)” returned a logFC.mWT.over.mEQ of 2.09.

Turning to “OS9_54 ([code q]SQSSDVVIVSSKYKQR; also: modified N-terminal Gln; listed as Homo sapiens)”, the logFC.mWT.over.mEQ is reported as 2.81.

On to “OS9_55 (SQSSDVVIVSSKYKQR; listed as Homo sapiens)”, for which the logFC.mWT.over.mEQ was found to be 2.29.

“PAPPA_41 (AAGPATCATR; listed as Homo sapiens)”: the logFC.mWT.over.mEQ came out at 3.48.

With “PDLIM4_104 (IDPEIQDGSPTTSR; listed as Homo sapiens)”, the logFC.mWT.over.mEQ is recorded as 1.13.

With “POLR3G_88 (LFCSHWSHIPGFK; listed as Homo sapiens)”, the logFC.mWT.over.mEQ turned out to be 1.51.

“POSTN_413 (FSDDTLSMDQR; listed as Homo sapiens)” came in with a logFC.mWT.over.mEQ of 2.31.

“POSTN_754 (IITGPEIKYTR; listed as Homo sapiens)” displayed a logFC.mWT.over.mEQ of 1.68.

Turning to “POSTN_790 (FIEGGDGHLFEDEEIKR; listed as Homo sapiens)”, the logFC.mWT.over.mEQ is on record as 1.18.

“POSTN_807 (LLQGDTPVR; listed as Homo sapiens)” gave a logFC.mWT.over.mEQ of 1.17.

Consider “PPP1R18_295 (LSETLTR; listed as Homo sapiens)”, for which the logFC.mWT.over.mEQ stood at 3.68.

In turn, “PSAP_171 (F[Met(O)]ANIPLLLYPQDGPR; listed as Homo sapiens)” yielded a logFC.mWT.over.mEQ of 1.03.

With “PXDN_1341 (SYQEDKPTKKTR; listed as Homo sapiens)”, the logFC.mWT.over.mEQ was 5.26.

In turn, “PXDN_1393 (QKTITDLR; listed as Homo sapiens)” displayed a logFC.mWT.over.mEQ of 4.77.
